This assay has as its system mice. Briefly: Murine bFGF matrigel plug angiogenesis, lectin-FITC fluorescence. Type of assay: in vivo. As to conditions: bFGF matrigel s.c. containing 25 μg/ml antibody or 1 mM peptide; 72 hours. How it is done:
Angiogenesis was induced by subcutaneous injection of 400 μl of growth factor depleted matrigel supplemented 0.4 μg/ml bFGF and saline, 25 μg/ml function blocking anti-α4β1 antibodies or control antibodies. Alternatively, mice were injected with matrigel containing bFGF and 1 mM of the sequence EILDVPST (SEQ ID NO:52) or the control sequence EILEVPST (SEQ ID NO:53). After 72 hours, mice were injected with Bandiera Simplicifolia lectin-FITC conjugate. After 15 minutes, matrigel plugs were excised and homogenized. Fluorescence intensity within the lysed plug was determined and correlated with degree of angiogenesis as determined by standard immunohistochemical analyses.

Regarding “EILDVPST [peptide antagonist of integrin α4β1]”, the “growth factor-stimulated angiogenesis (fluorescence intensity within the lysed matrigel plug)” value is “selectively and specifically inhibited”.

(Values after patent US7824680B2, “Methods for inhibiting angiogenesis” (The Regents of the University of California, priority 2001, dated 2010).)
